According to ChEMBL document CHEMBL3046257, “Response of sweet maize (Zea mays L.) hybrids to halosulfuron” (Crop Prot, 2008):

Assays:
Type in all cases: organism-based
[1] = test system: Zea mays; test: Toxicity in Zea mays GH2298 (maize) assessed as visible injury at 50 g ai/ha applied shortly post-emergence at three to five-leaf stage using backpack sprayer measured after 14 days; settings: in vivo, other, 336 h
[2] = test system: Zea mays; test: Toxicity in Zea mays GH2041 (maize) assessed as visible injury at 50 g ai/ha applied shortly post-emergence at three to five-leaf stage using backpack sprayer measured after 28 days; settings: in vivo, other, 672 h
[3] = test system: Zea mays; test: Toxicity in Zea mays Empire (maize) assessed as visible injury at 25 g ai/ha applied shortly post-emergence at three to five-leaf stage using backpack sprayer measured after 7 days; settings: in vivo, other, 168 h
[4] = test system: Zea mays; test: Toxicity in Zea mays GG446 (maize) assessed as plant height at 25 g ai/ha applied shortly post-emergence at three to five-leaf stage using backpack sprayer measured after 21 days (reference value: 85 cm); settings: in vivo, other, 504 h
[5] = test system: Zea mays; test: Toxicity in Zea mays GH2547 (maize) assessed as visible injury at 25 g ai/ha applied shortly post-emergence at three to five-leaf stage using backpack sprayer measured after 28 days; settings: in vivo, other, 672 h
[6] = test system: Zea mays; test: Toxicity in Zea mays Empire (maize) assessed as plant height at 25 g ai/ha applied shortly post-emergence at three to five-leaf stage using backpack sprayer measured after 21 days (Rvb =73 cm); settings: in vivo, other, 504 h
[7] = test system: Zea mays; test: Toxicity in Zea mays GSS9299 (maize) assessed as visible injury at 50 g ai/ha applied shortly post-emergence at three to five-leaf stage using backpack sprayer measured after 28 days; settings: in vivo, other, 672 h
[8] = test system: Zea mays; test: Toxicity in Zea mays Empire (maize) assessed as visible injury at 50 g ai/ha applied shortly post-emergence at three to five-leaf stage using backpack sprayer measured after 28 days; settings: in vivo, other, 672 h
[9] = test system: Zea mays; test: Toxicity in Zea mays GH2298 (maize) assessed as marketable yield at 50 g ai/ha applied shortly post-emergence at three to five-leaf stage using backpack sprayer (reference value: 16.9 T/ha ); settings: in vivo, other
[10] = test system: Zea mays; test: Toxicity in Zea mays GH2684 (maize) assessed as visible injury at 50 g ai/ha applied shortly post-emergence at three to five-leaf stage using backpack sprayer measured after 28 days; settings: in vivo, other, 672 h
[11] = test system: Zea mays; test: Toxicity in Zea mays GSS9299 (maize) assessed as cob size at 50 g ai/ha applied shortly post-emergence at three to five-leaf stage using backpack sprayer (reference value: 292 g); settings: in vivo, other
[12] = test system: Zea mays; test: Toxicity in Zea mays GH2298 (maize) assessed as visible injury at 50 g ai/ha applied shortly post-emergence at three to five-leaf stage using backpack sprayer measured after 28 days; settings: in vivo, other, 672 h
[13] = test system: Zea mays; test: Toxicity in Zea mays Empire (maize) assessed as cob size at 50 g ai/ha applied shortly post-emergence at three to five-leaf stage using backpack sprayer (reference value: 304 g); settings: in vivo, other
[14] = test system: Zea mays; test: Toxicity in Zea mays GH2684 (maize) assessed as visible injury at 25 g ai/ha applied shortly post-emergence at three to five-leaf stage using backpack sprayer measured after 28 days; settings: in vivo, other, 672 h
[15] = test system: Zea mays; test: Toxicity in Zea mays Empire (maize) assessed as visible injury at 25 g ai/ha applied shortly post-emergence at three to five-leaf stage using backpack sprayer measured after 28 days; settings: in vivo, other, 672 h
[16] = test system: Zea mays; test: Toxicity in Zea mays GSS9299 (maize) assessed as visible injury at 50 g ai/ha applied shortly post-emergence at three to five-leaf stage using backpack sprayer measured after 7 days; settings: in vivo, other, 168 h
[17] = test system: Zea mays; test: Toxicity in Zea mays GSS9299 (maize) assessed as visible injury at 25 g ai/ha applied shortly post-emergence at three to five-leaf stage using backpack sprayer measured after 14 days; settings: in vivo, other, 336 h
[18] = test system: Zea mays; test: Toxicity in Zea mays GH2041 (maize) assessed as cob size at 50 g ai/ha applied shortly post-emergence at three to five-leaf stage using backpack sprayer (reference value: 285 g); settings: in vivo, other
[19] = test system: Zea mays; test: Toxicity in Zea mays Empire (maize) assessed as visible injury at 50 g ai/ha applied shortly post-emergence at three to five-leaf stage using backpack sprayer measured after 7 days; settings: in vivo, other, 168 h
[20] = test system: Zea mays; test: Toxicity in Zea mays GH2547 (maize) assessed as plant height at 25 g ai/ha applied shortly post-emergence at three to five-leaf stage using backpack sprayer measured after 21 days (Rvb =80 cm); settings: in vivo, other, 504 h
[21] = test system: Zea mays; test: Toxicity in Zea mays GG214 (maize) assessed as visible injury at 50 g ai/ha applied shortly post-emergence at three to five-leaf stage using backpack sprayer measured after 14 days; settings: in vivo, other, 336 h
[22] = test system: Zea mays; test: Toxicity in Zea mays GG446 (maize) assessed as visible injury at 50 g ai/ha applied shortly post-emergence at three to five-leaf stage using backpack sprayer measured after 7 days; settings: in vivo, other, 168 h
[23] = test system: Zea mays; test: Toxicity in Zea mays GG214 (maize) assessed as visible injury at 25 g ai/ha applied shortly post-emergence at three to five-leaf stage using backpack sprayer measured after 7 days; settings: in vivo, other, 168 h
[24] = test system: Zea mays; test: Toxicity in Zea mays GSS9299 (maize) assessed as plant height at 50 g ai/ha applied shortly post-emergence at three to five-leaf stage using backpack sprayer measured after 21 days (Rvb =69 cm); settings: in vivo, other, 504 h
[25] = test system: Zea mays; test: Toxicity in Zea mays GSS9299 (maize) assessed as visible injury at 50 g ai/ha applied shortly post-emergence at three to five-leaf stage using backpack sprayer measured after 14 days; settings: in vivo, other, 336 h
[26] = test system: Zea mays; test: Toxicity in Zea mays GSS9299 (maize) assessed as plant height at 25 g ai/ha applied shortly post-emergence at three to five-leaf stage using backpack sprayer measured after 21 days (Rvb =69 cm); settings: in vivo, other, 504 h
[27] = test system: Zea mays; test: Toxicity in Zea mays GG214 (maize) assessed as plant height at 50 g ai/ha applied shortly post-emergence at three to five-leaf stage using backpack sprayer measured after 21 days (Rvb =81 cm); settings: in vivo, other, 504 h
[28] = test system: Zea mays; test: Toxicity in Zea mays GH2298 (maize) assessed as visible injury at 25 g ai/ha applied shortly post-emergence at three to five-leaf stage using backpack sprayer measured after 7 days; settings: in vivo, other, 168 h
[29] = test system: Zea mays; test: Toxicity in Zea mays GG446 (maize) assessed as visible injury at 25 g ai/ha applied shortly post-emergence at three to five-leaf stage using backpack sprayer measured after 7 days; settings: in vivo, other, 168 h
[30] = test system: Zea mays; test: Toxicity in Zea mays GH2298 (maize) assessed as visible injury at 25 g ai/ha applied shortly post-emergence at three to five-leaf stage using backpack sprayer measured after 28 days; settings: in vivo, other, 672 h

With `COc1cc(OC)nc(NC(=O)NS(=O)(=O)c2c(C(=O)O)c(Cl)nn2C)n1` [HALOSULFURON] the Activity [1] was 4%, the Activity [2] was 0% and the Activity [3] was 4%. For the same molecule, the Activity [4] was 81 cm, the Activity [5] was 0% and the Activity [6] was 69 cm. The Activity [7] was 1%, the Activity [8] was 1% and the Crop_yield [9] was 15.7 tons/ha. It also gave an Activity [10] of 1%, an Activity [11] of 297 g and an Activity [12] of 1%. The Activity [13] was 289 g, the Activity [14] was 0% and the Activity [15] was 0%. For the same molecule, the Activity [16] was 2%, the Activity [17] was 2% and the Activity [18] was 267 g. The Activity [19] was 8%, the Activity [20] was 78 cm and the Activity [21] was 1%. It also gave an Activity [22] of 0%, an Activity [23] of 1% and an Activity [24] of 68 cm. It also gave an Activity [25] of 2%, an Activity [26] of 68 cm and an Activity [27] of 75 cm. The Activity [28] was 3%, the Activity [29] was 0% and the Activity [30] was 0%.
